Source: ChEMBL document CHEMBL6087433, “Discovery of ART0380, a Potent and Selective ATR Kinase Inhibitor Undergoing Phase 2 Clinical Studies for the Treatment of Advanced or Metastatic Solid Cancers” (J Med Chem, 2024)
pEC50, pIC50: −log10 of the molar value. ≈ marks a conversion by molar mass, not a printed value.

Assays:
[1] = in vivo; settings: Sprague-Dawley, rat, plasma, iv, 1 mg/kg
[2] = biological target: Cytochrome P450 2D6 (Homo sapiens, UniProt P10635)
[3] = physchem; settings: aqueous buffer, pH 7.4
Description: Thermodynamic solubility of the compound in aqueous buffer at pH 7.4

[4] = in vitro; settings: human, CCD-18Co cells
Description: Cytotoxicity against human CCD-18Co cells assessed as inhibition of cell growth incubated for 7 days by CellTiter-Glo 2.0 assay

[5] = biological target: T1, Serine/threonine-protein kinase mTOR (Homo sapiens, UniProt P42345)
Description: Inhibition of mTOR (unknown origin) by LANCE Ultra assay

[6] = in vitro; settings: mouse, hepatocytes
Description: Intrinsic clearance in mouse hepatocytes

[7] = biological target: Cytochrome P450 2C9 (Homo sapiens, UniProt P11712)
[8] = in vivo; settings: Sprague-Dawley, rat, po, 10 mg/kg
[9] = biological target: T2, Cytochrome P450 2B6 (Homo sapiens, UniProt P20813)
T2 sequence (P20813 whole entry): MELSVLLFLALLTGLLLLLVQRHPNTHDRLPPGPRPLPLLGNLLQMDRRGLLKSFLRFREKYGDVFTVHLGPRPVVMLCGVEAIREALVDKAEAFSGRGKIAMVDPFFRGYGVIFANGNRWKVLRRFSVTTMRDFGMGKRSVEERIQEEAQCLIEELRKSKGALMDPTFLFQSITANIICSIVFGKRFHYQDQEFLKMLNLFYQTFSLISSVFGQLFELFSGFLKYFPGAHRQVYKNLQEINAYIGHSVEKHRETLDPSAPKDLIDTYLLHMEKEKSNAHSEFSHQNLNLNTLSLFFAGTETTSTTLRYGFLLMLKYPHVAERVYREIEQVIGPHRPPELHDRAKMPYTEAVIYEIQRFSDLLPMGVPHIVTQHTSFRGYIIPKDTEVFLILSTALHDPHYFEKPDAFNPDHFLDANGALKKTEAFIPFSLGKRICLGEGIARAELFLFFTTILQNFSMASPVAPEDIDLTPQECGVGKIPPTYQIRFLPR
Description: Inhibition of CYP2B6 in human liver microsomes by LC-MS/MS analysis

[10] = biological target: T1, Serine/threonine-protein kinase mTOR; remark: listed apart in the source
[11] = biological target: T3, Cytochrome P450 1A2 (Homo sapiens, UniProt P05177)
T3 sequence (P05177 whole entry): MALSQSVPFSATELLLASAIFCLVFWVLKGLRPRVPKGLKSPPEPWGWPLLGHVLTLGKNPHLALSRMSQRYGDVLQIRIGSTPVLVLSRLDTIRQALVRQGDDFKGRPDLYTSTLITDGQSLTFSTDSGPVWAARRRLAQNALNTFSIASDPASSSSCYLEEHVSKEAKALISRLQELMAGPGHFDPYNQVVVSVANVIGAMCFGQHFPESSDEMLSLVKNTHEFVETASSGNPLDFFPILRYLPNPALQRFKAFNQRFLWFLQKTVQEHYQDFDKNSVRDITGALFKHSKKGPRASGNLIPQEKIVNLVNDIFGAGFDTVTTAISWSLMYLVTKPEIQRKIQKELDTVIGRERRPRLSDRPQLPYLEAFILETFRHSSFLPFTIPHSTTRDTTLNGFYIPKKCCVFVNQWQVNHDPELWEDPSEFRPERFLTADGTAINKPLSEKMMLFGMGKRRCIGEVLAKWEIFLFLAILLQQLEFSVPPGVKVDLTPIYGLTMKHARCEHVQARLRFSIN

[12] = test system: NCI-H23; experiment: cells; settings: Homo sapiens
Description: Antiproliferative activity against human NCI-H23 cells assessed as inhibition of cell growth incubated for 7 days by CellTiter-Glo 2.0 assay

[13] = in vivo; settings: Sprague-Dawley, rat, po, 10 mg/kg; remark: listed apart in the source

Sequence of Cytochrome P450 2C9 (P11712 whole entry): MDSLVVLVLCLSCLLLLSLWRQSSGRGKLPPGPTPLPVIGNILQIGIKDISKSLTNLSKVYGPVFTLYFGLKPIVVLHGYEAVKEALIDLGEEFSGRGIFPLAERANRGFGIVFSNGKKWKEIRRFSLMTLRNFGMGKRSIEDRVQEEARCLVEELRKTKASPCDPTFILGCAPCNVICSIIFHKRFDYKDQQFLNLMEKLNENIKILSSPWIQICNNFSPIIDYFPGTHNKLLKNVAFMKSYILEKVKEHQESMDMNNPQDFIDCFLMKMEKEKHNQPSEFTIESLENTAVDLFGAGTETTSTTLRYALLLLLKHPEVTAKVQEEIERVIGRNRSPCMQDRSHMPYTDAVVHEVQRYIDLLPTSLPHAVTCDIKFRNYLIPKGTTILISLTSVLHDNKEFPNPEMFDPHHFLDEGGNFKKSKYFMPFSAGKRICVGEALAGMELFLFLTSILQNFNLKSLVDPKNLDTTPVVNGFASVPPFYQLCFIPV
Sequence of Cytochrome P450 2D6 (P10635 whole entry): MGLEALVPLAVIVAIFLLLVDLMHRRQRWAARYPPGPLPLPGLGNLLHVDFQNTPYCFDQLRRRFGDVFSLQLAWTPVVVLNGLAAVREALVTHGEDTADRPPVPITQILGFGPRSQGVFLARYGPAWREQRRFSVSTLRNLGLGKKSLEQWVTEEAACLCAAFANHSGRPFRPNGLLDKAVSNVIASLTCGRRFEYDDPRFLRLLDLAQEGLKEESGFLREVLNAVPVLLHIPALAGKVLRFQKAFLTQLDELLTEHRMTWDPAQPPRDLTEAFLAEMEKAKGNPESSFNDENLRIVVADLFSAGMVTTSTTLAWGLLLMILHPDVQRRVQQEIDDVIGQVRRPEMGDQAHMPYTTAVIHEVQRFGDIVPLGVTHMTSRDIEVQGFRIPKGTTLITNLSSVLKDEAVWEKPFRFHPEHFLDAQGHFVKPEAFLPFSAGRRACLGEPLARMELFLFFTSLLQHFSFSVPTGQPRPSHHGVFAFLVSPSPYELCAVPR

SMILES: C[C@@H]1COCCN1c1cc(N=[S@@](C)(=O)C2CC2)nc(-c2ccnc(N)c2)n1
- clearance [1]: 98 mL/min/kg
- pIC50 [2]: < 5.00
- solubility thermodynamic [3]: 1500 µg/mL (≈ 3.86 mM)
- EC50 at 7 days [4]: 6.92 µM
- pIC50 [5]: 6.01
- CLint scaled [6]: 22 mL/min/kg
- pIC50 [7]: < 5.00
- bioavailability [8]: 58%
- pIC50 [9]: < 5.00
- pIC50 [10]: 5.08
- pIC50 [11]: < 5.00
- pEC50 [12]: 6.85
- Cmax [13]: 5.56 µM
